Values joined by “and” are separate entries in the source; they are usually repeats but may differ in a detail not shown here. Equal entries are not always repeated.
Test system: KRAS PDC multicell spheroid viability
Assay: Anticancer human tumor 521955-158-R6-J3-PDC patient-derived pancreatic carcinoma cell line growth inhibition [KRAS2]
Settings: for viability, T/C: stronger effect = lower value
Outline: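 KRAS-mutant tumor cells were grown as spheroids with HUVEC endothelial cells and human MSCs as stroma. Targeted agents were tested alone and with KRAS pathway inhibitors. Doses started at or near clinical Cmax, or 10 microM, descending half-log.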

[1] = curve of first compound, second compound 0.1 µM
[2] = curve of first compound, second compound 0.316 µM
[3] = curve of first compound, second compound 1 µM
[4] = curve of first compound, second compound 3.16 µM
[5] = curve of first compound, second compound 10 µM
[6] = second compound 0.1 µM, first compound 0.0316 µM
[7] = second compound 0.1 µM, first compound 0.1 µM
[8] = second compound 0.1 µM, first compound 0.316 µM
[9] = second compound 0.1 µM, first compound 1 µM
[10] = second compound 0.1 µM, first compound 3.16 µM
[11] = second compound 0.316 µM, first compound 0.0316 µM
[12] = second compound 0.316 µM, first compound 0.1 µM
[13] = second compound 0.316 µM, first compound 0.316 µM
[14] = second compound 0.316 µM, first compound 1 µM
[15] = second compound 0.316 µM, first compound 3.16 µM
[16] = second compound 1 µM, first compound 0.0316 µM
[17] = second compound 1 µM, first compound 0.1 µM
[18] = second compound 1 µM, first compound 0.316 µM
[19] = second compound 1 µM, first compound 1 µM
[20] = second compound 1 µM, first compound 3.16 µM
[21] = second compound 3.16 µM, first compound 0.0316 µM
[22] = second compound 3.16 µM, first compound 0.1 µM
[23] = second compound 3.16 µM, first compound 0.316 µM
[24] = second compound 3.16 µM, first compound 1 µM
[25] = second compound 3.16 µM, first compound 3.16 µM
[26] = second compound 10 µM, first compound 0.0316 µM
[27] = second compound 10 µM, first compound 0.1 µM
[28] = second compound 10 µM, first compound 0.316 µM
[29] = second compound 10 µM, first compound 1 µM
[30] = second compound 10 µM, first compound 3.16 µM
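Note: drug exposure lasted seven days.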
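Throughout, for viability, T/C: 100% = DMSO vehicle wells and lower means fewer viable cells.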

With CC(=O)OC12COC1CC(O)C1(C)C(=O)C(O)C3=C(C)C(OC(=O)C(O)C(NC(=O)OC(C)(C)C)c4ccccc4)CC(O)(C(OC(=O)c4ccccc4)C21)C3(C)C (configuration not stated) + CNCc1ccccc1-c1csc(C(C)Nc2nc(C)nc3cc(OC)c(OC)cc23)c1 as the molecule, how does the IC50 [1] read?
Its IC50 is greater than 3.16 µM.

What about the IC50 [2] of the same molecule?
Its IC50 is greater than 3.16 µM.

And the IC50 [3]?
The IC50 was greater than 3.16 µM.

What about the IC50 [4] of the same molecule?
The IC50 was less than 0.01 µM.

What about the IC50 [5] of the same molecule?
Its IC50 is less than 0.01 µM.

What about the viability, T/C (second compound 0.1 µM, first compound 0.01 µM) of the same molecule?
The viability, T/C was 68.7%.

What about the viability, T/C [6] of the same molecule?
Its viability, T/C is 67.6%.

What about the viability, T/C [7] of the same molecule?
Its viability, T/C is 72.9%.

What about the viability, T/C [8] of the same molecule?
The viability, T/C was 82.2%.

What about the viability, T/C [9] of the same molecule?
Its viability, T/C is 85.6%.

And the viability, T/C [10]?
The viability, T/C was 96.1%.

And the viability, T/C (second compound 0.316 µM, first compound 0.01 µM)?
Its viability, T/C is 70.4%.

What about the viability, T/C [11] of the same molecule?
Its viability, T/C is 64.7%.

What about the viability, T/C [12] of the same molecule?
The viability, T/C was 69.9%.

What about the viability, T/C [13] of the same molecule?
The viability, T/C was 60.6%.

And the viability, T/C [14]?
Its viability, T/C is 92%.

And the viability, T/C [15]?
The viability, T/C was 93.7%.

What about the viability, T/C (second compound 1 µM, first compound 0.01 µM) of the same molecule?
Its viability, T/C is 75.3%.

And the viability, T/C [16]?
The viability, T/C was 70.6%.

And the viability, T/C [17]?
Its viability, T/C is 73.8%.

What about the viability, T/C [18] of the same molecule?
The viability, T/C was 83.6%.

And the viability, T/C [19]?
Its viability, T/C is 94.8%.

And the viability, T/C [20]?
The viability, T/C was 98.1%.

What about the viability, T/C (second compound 3.16 µM, first compound 0.01 µM) of the same molecule?
Its viability, T/C is 0.42%.

What about the viability, T/C [21] of the same molecule?
The viability, T/C was 72.7%.

And the viability, T/C [22]?
Its viability, T/C is 0.72%.

And the viability, T/C [23]?
Its viability, T/C is 1.02%.

What about the viability, T/C [24] of the same molecule?
Its viability, T/C is 3.04%.

And the viability, T/C [25]?
Its viability, T/C is 130%.

And the viability, T/C (second compound 10 µM, first compound 0.01 µM)?
The viability, T/C was 1.35%.

What about the viability, T/C [26] of the same molecule?
The viability, T/C was 0.32%.

What about the viability, T/C [27] of the same molecule?
The viability, T/C was 0.53%.

And the viability, T/C [28]?
The viability, T/C was 0.88%.

What about the viability, T/C [29] of the same molecule?
The viability, T/C was 0.31%.

What about the viability, T/C [30] of the same molecule?
The viability, T/C was 0.89%.

CCNC(=O)CC1N=C(c2ccc(Cl)cc2)c2cc(OC)ccc2-n2c(C)nnc21 (configuration not stated) + CNCc1ccccc1-c1csc(C(C)Nc2nc(C)nc3cc(OC)c(OC)cc23)c1 was tested. Which IC50 [1] did it give?
The IC50 was greater than 10 µM.

And the IC50 [2]?
Its IC50 is greater than 10 µM.

What about the IC50 [3] of the same molecule?
Its IC50 is greater than 10 µM.

And the IC50 [4]?
The IC50 was less than 0.0316 µM.

And the IC50 [5]?
Its IC50 is less than 0.0316 µM.

What about the viability, T/C [6] of the same molecule?
The viability, T/C was 96.3%.

What about the viability, T/C [7] of the same molecule?
Its viability, T/C is 90.5%.

And the viability, T/C [8]?
The viability, T/C was 67.6%.

And the viability, T/C [9]?
Its viability, T/C is 69.5%.

And the viability, T/C [10]?
Its viability, T/C is 68.1%.

What about the viability, T/C (second compound 0.1 µM, first compound 10 µM) of the same molecule?
The viability, T/C was 73.8%.

What about the viability, T/C [11] of the same molecule?
Its viability, T/C is 82.3%.

What about the viability, T/C [12] of the same molecule?
Its viability, T/C is 71.9%.

And the viability, T/C [13]?
The viability, T/C was 72.4%.

What about the viability, T/C [14] of the same molecule?
The viability, T/C was 61%.

What about the viability, T/C [15] of the same molecule?
The viability, T/C was 65.8%.

And the viability, T/C (second compound 0.316 µM, first compound 10 µM)?
The viability, T/C was 69.5%.

What about the viability, T/C [16] of the same molecule?
The viability, T/C was 71.3%.

And the viability, T/C [17]?
The viability, T/C was 62%.

What about the viability, T/C [18] of the same molecule?
Its viability, T/C is 61.6%.

And the viability, T/C [19]?
The viability, T/C was 62.8%.

And the viability, T/C [20]?
Its viability, T/C is 74.3%.

And the viability, T/C (second compound 1 µM, first compound 10 µM)?
Its viability, T/C is 73%.

What about the viability, T/C [21] of the same molecule?
Its viability, T/C is 0.29%.

What about the viability, T/C [22] of the same molecule?
The viability, T/C was 0.34%.

And the viability, T/C [23]?
Its viability, T/C is 0.34%.

And the viability, T/C [24]?
The viability, T/C was 0.43%.

What about the viability, T/C [25] of the same molecule?
The viability, T/C was 0.28%.

What about the viability, T/C (second compound 3.16 µM, first compound 10 µM) of the same molecule?
Its viability, T/C is 0.8%.

What about the viability, T/C [26] of the same molecule?
Its viability, T/C is 0.2%.

What about the viability, T/C [27] of the same molecule?
The viability, T/C was 0.18%.

What about the viability, T/C [28] of the same molecule?
Its viability, T/C is 0.16%.

What about the viability, T/C [29] of the same molecule?
The viability, T/C was 0.17%.

And the viability, T/C [30]?
Its viability, T/C is 0.21%.

And the viability, T/C (second compound 10 µM, first compound 10 µM)?
Its viability, T/C is 0.28%.

Which results are given for Cn1nccc1Nc1nccc(-c2cc3c(s2)C(C)(C)N(CCN2CCOCC2)C3=O)n1?
viability, T/C (compound 0.0316 µM): 109% and 83.6%; viability, T/C (compound 0.1 µM): 112% and 98.5%; viability, T/C (compound 0.316 µM): 123% and 98.7%; viability, T/C (compound 1 µM): 105% and 91.8%; viability, T/C (compound 3.16 µM): 85.4% and 76%; viability, T/C (compound 10 µM): 73.7% and 66.2%; IC50 (curve of compound): > 10 µM

Which viability, T/C (compound 0.1 µM) does the source give for C=CC(=O)N1CCN(c2nc(=O)n(-c3c(C)ccnc3C(C)C)c3nc(-c4c(O)cccc4F)c(F)cc23)C(C)C1 (configuration not stated) here?
Its viability, T/C is 94.8% [middle of 16 runs].

What about the viability, T/C (compound 0.316 µM) of the same molecule?
The viability, T/C was 97.2% [middle of 16 runs].

And the IC50 (compound alone, run of 08/19/2021)?
The IC50 was greater than 10 µM.

And the IC50 (compound alone, run of 08/26/2021)?
The IC50 was greater than 10 µM.

And the IC50 (compound alone, run of 09/02/2021)?
Its IC50 is greater than 10 µM.
